Data published in PubChem BioAssay (NCI).
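How tested: cells in 96-well plates exposed to compound for 48 hours at five concentrations. The concentration for full growth arrest is given as TGI.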

How the values were obtained:
Assay in all cases: inhibition of tumour cell growth, NCI panel, 48 h
HOP-62 NSCLC = tested on: HOP-62 NSCLC
786-0 renal = tested on: 786-0 renal
UO-31 renal = tested on: UO-31 renal
CCRF-CEM leukemia = tested on: CCRF-CEM leukemia
NCI-H23 lung = tested on: NCI-H23 lung
DLD-1 colon = tested on: DLD-1 colon
HOP-18 NSCLC = tested on: HOP-18 NSCLC
XF 498 CNS = tested on: XF 498 CNS
SN12C renal = tested on: SN12C renal
HT29 colon = tested on: HT29 colon
TK-10 renal = tested on: TK-10 renal
COLO 205 colon = tested on: COLO 205 colon
A498 renal = tested on: A498 renal
ACHN renal = tested on: ACHN renal
SR leukemia = tested on: SR leukemia
SK-MEL-2 melanoma = tested on: SK-MEL-2 melanoma
HCT-15 colon = tested on: HCT-15 colon
M14 melanoma = tested on: M14 melanoma
SK-OV-3 ovarian = tested on: SK-OV-3 ovarian
HCT-116 colon = tested on: HCT-116 colon
SNB-75 CNS = tested on: SNB-75 CNS
NCI-H460 lung = tested on: NCI-H460 lung
EKVX NSCLC = tested on: EKVX NSCLC
OVCAR-4 ovarian = tested on: OVCAR-4 ovarian
A549 NSCLC = tested on: A549 NSCLC
DMS 273 small cell lung = tested on: DMS 273 small cell lung
OVCAR-3 ovarian = tested on: OVCAR-3 ovarian
UACC-62 melanoma = tested on: UACC-62 melanoma
RXF-631 renal = tested on: RXF-631 renal
K-562 leukemia = tested on: K-562 leukemia
KM12 colon = tested on: KM12 colon
SF-539 CNS = tested on: SF-539 CNS
RXF 393 renal = tested on: RXF 393 renal
CAKI-1 renal = tested on: CAKI-1 renal
HL-60(TB) leukemia = tested on: HL-60(TB) leukemia
OVCAR-5 ovarian = tested on: OVCAR-5 ovarian
KM20L2 colon = tested on: KM20L2 colon
SK-MEL-5 melanoma = tested on: SK-MEL-5 melanoma
SK-MEL-28 melanoma = tested on: SK-MEL-28 melanoma
MOLT-4 leukemia = tested on: MOLT-4 leukemia
LXFL 529 NSCLC = tested on: LXFL 529 NSCLC
NCI-H522 lung = tested on: NCI-H522 lung
NCI-H226 lung = tested on: NCI-H226 lung
MALME-3M melanoma = tested on: MALME-3M melanoma
M19-MEL melanoma = tested on: M19-MEL melanoma
IGROV1 ovarian = tested on: IGROV1 ovarian
SF-268 CNS = tested on: SF-268 CNS
U251 CNS = tested on: U251 CNS
OVCAR-8 ovarian = tested on: OVCAR-8 ovarian
SW-620 colon = tested on: SW-620 colon
SNB-19 CNS = tested on: SNB-19 CNS
SF-295 CNS = tested on: SF-295 CNS
SNB-78 CNS = tested on: SNB-78 CNS
LOX IMVI melanoma = tested on: LOX IMVI melanoma
UACC-257 melanoma = tested on: UACC-257 melanoma
HCC-2998 colon = tested on: HCC-2998 colon
RPMI-8226 leukemia = tested on: RPMI-8226 leukemia
DMS 114 small cell lung = tested on: DMS 114 small cell lung
HOP-92 NSCLC = tested on: HOP-92 NSCLC
PC-3 prostate = tested on: PC-3 prostate
T-47D breast = tested on: T-47D breast
MDA-MB-435 = tested on: MDA-MB-435
MDA-N = tested on: MDA-N
BT-549 breast = tested on: BT-549 breast
DU-145 prostate = tested on: DU-145 prostate
HS 578T breast = tested on: HS 578T breast

## CCOC(=N)CC(=O)Nc1ccccc1CC
HOP-62 NSCLC
  TGI: > 100 µM
786-0 renal
  TGI: > 100 µM
UO-31 renal
  TGI: > 100 µM
CCRF-CEM leukemia
  TGI: > 100 µM
NCI-H23 lung
  TGI: > 100 µM
DLD-1 colon
  TGI: > 100 µM
HOP-18 NSCLC
  TGI: > 100 µM
XF 498 CNS
  TGI: > 100 µM
SN12C renal
  TGI: > 100 µM
HT29 colon
  TGI: > 100 µM
TK-10 renal
  TGI: > 100 µM
COLO 205 colon
  TGI: > 100 µM
A498 renal
  TGI: > 100 µM
ACHN renal
  TGI: > 100 µM
SR leukemia
  TGI: > 100 µM
SK-MEL-2 melanoma
  TGI: > 100 µM
HCT-15 colon
  TGI: > 100 µM
M14 melanoma
  TGI: > 100 µM
SK-OV-3 ovarian
  TGI: > 100 µM
HCT-116 colon
  TGI: > 100 µM
SNB-75 CNS
  TGI: > 100 µM
NCI-H460 lung
  TGI: > 100 µM
EKVX NSCLC
  TGI: > 100 µM
OVCAR-4 ovarian
  TGI: > 100 µM
A549 NSCLC
  TGI: > 100 µM
DMS 273 small cell lung
  TGI: > 100 µM
OVCAR-3 ovarian
  TGI: > 100 µM
UACC-62 melanoma
  TGI: > 100 µM
RXF-631 renal
  TGI: > 100 µM
K-562 leukemia
  TGI: > 100 µM
KM12 colon
  TGI: > 100 µM
SF-539 CNS
  TGI: > 100 µM
RXF 393 renal
  TGI: > 100 µM
CAKI-1 renal
  TGI: > 100 µM
HL-60(TB) leukemia
  TGI: > 100 µM
OVCAR-5 ovarian
  TGI: > 100 µM
KM20L2 colon
  TGI: > 100 µM
SK-MEL-5 melanoma
  TGI: > 100 µM
SK-MEL-28 melanoma
  TGI: > 100 µM
MOLT-4 leukemia
  TGI: > 100 µM
LXFL 529 NSCLC
  TGI: > 100 µM
NCI-H522 lung
  TGI: > 100 µM
NCI-H226 lung
  TGI: > 100 µM
MALME-3M melanoma
  TGI: > 100 µM
M19-MEL melanoma
  TGI: > 100 µM
IGROV1 ovarian
  TGI: > 100 µM
SF-268 CNS
  TGI: > 100 µM
U251 CNS
  TGI: > 100 µM
OVCAR-8 ovarian
  TGI: > 100 µM
SW-620 colon
  TGI: > 100 µM
SNB-19 CNS
  TGI: > 100 µM
SF-295 CNS
  TGI: > 100 µM
SNB-78 CNS
  TGI: > 100 µM
LOX IMVI melanoma
  TGI: > 100 µM
UACC-257 melanoma
  TGI: > 100 µM
HCC-2998 colon
  TGI: > 100 µM

## CC(C)(C1=NC(C(C)(C)C)CO1)C1=N[C@@H](C(C)(C)C)CO1 (stereo partly specified)
HOP-62 NSCLC
  TGI: > 100 µM
786-0 renal
  TGI: > 100 µM
UO-31 renal
  TGI: > 100 µM
CCRF-CEM leukemia
  TGI: > 100 µM
NCI-H23 lung
  TGI: > 100 µM
DLD-1 colon
  TGI: > 100 µM
HOP-18 NSCLC
  TGI: > 100 µM
XF 498 CNS
  TGI: > 100 µM
RPMI-8226 leukemia
  TGI: > 100 µM
SN12C renal
  TGI: > 100 µM
HT29 colon
  TGI: > 100 µM
TK-10 renal
  TGI: > 100 µM
DMS 114 small cell lung
  TGI: > 100 µM
COLO 205 colon
  TGI: > 100 µM
ACHN renal
  TGI: > 100 µM
SR leukemia
  TGI: > 100 µM
SK-MEL-2 melanoma
  TGI: > 100 µM
HCT-15 colon
  TGI: > 100 µM
M14 melanoma
  TGI: > 100 µM
SK-OV-3 ovarian
  TGI: > 100 µM
HCT-116 colon
  TGI: > 100 µM
SNB-75 CNS
  TGI: > 100 µM
NCI-H460 lung
  TGI: > 100 µM
EKVX NSCLC
  TGI: > 100 µM
OVCAR-4 ovarian
  TGI: > 100 µM
A549 NSCLC
  TGI: > 100 µM
DMS 273 small cell lung
  TGI: > 100 µM
OVCAR-3 ovarian
  TGI: > 100 µM
UACC-62 melanoma
  TGI: > 100 µM
K-562 leukemia
  TGI: > 100 µM
KM12 colon
  TGI: > 100 µM
SF-539 CNS
  TGI: > 100 µM
RXF 393 renal
  TGI: > 100 µM
HL-60(TB) leukemia
  TGI: > 100 µM
OVCAR-5 ovarian
  TGI: > 100 µM
KM20L2 colon
  TGI: > 100 µM
SK-MEL-5 melanoma
  TGI: > 100 µM
SK-MEL-28 melanoma
  TGI: > 100 µM
MOLT-4 leukemia
  TGI: > 100 µM
LXFL 529 NSCLC
  TGI: > 100 µM
NCI-H522 lung
  TGI: > 100 µM
NCI-H226 lung
  TGI: > 100 µM
MALME-3M melanoma
  TGI: > 100 µM
M19-MEL melanoma
  TGI: > 100 µM
HOP-92 NSCLC
  TGI: > 100 µM
IGROV1 ovarian
  TGI: > 100 µM
SF-268 CNS
  TGI: > 100 µM
U251 CNS
  TGI: > 100 µM
OVCAR-8 ovarian
  TGI: > 100 µM
SW-620 colon
  TGI: > 100 µM
SNB-19 CNS
  TGI: > 100 µM
SF-295 CNS
  TGI: > 100 µM
LOX IMVI melanoma
  TGI: > 100 µM
UACC-257 melanoma
  TGI: > 100 µM
HCC-2998 colon
  TGI: > 100 µM

## O=S1(=O)CCC2=CC(C(F)(F)F)=CC(C(F)(F)F)=CN21
HOP-62 NSCLC
  TGI: 4.88 µM
786-0 renal
  TGI: 1.09 µM
UO-31 renal
  TGI: 2.05 µM
CCRF-CEM leukemia
  TGI: 2.48 µM
NCI-H23 lung
  TGI: 3.37 µM
DLD-1 colon
  TGI: 1.77 µM
HOP-18 NSCLC
  TGI: 8.27 µM
XF 498 CNS
  TGI: 3.42 µM
RPMI-8226 leukemia
  TGI: 2.05 µM
SN12C renal
  TGI: 3.38 µM
HT29 colon
  TGI: 9.38 µM
TK-10 renal
  TGI: 2.13 µM
DMS 114 small cell lung
  TGI: 3.32 µM
COLO 205 colon
  TGI: 1.34 µM
A498 renal
  TGI: 3.84 µM
ACHN renal
  TGI: 1.11 µM
SR leukemia
  TGI: 1.82 µM
SK-MEL-2 melanoma
  TGI: 4.1 µM
HCT-15 colon
  TGI: 1.5 µM
M14 melanoma
  TGI: 2.03 µM
SK-OV-3 ovarian
  TGI: 12.2 µM
HCT-116 colon
  TGI: 0.712 µM
SNB-75 CNS
  TGI: 4.39 µM
NCI-H460 lung
  TGI: 8.01 µM
PC-3 prostate
  TGI: 5.91 µM
EKVX NSCLC
  TGI: 9.38 µM
OVCAR-4 ovarian
  TGI: 4.24 µM
T-47D breast
  TGI: 0.397 µM
A549 NSCLC
  TGI: 9.45 µM
OVCAR-3 ovarian
  TGI: 3.14 µM
MDA-MB-435
  TGI: 4.77 µM
UACC-62 melanoma
  TGI: 3.69 µM
RXF-631 renal
  TGI: 3.89 µM
K-562 leukemia
  TGI: 6.61 µM
KM12 colon
  TGI: 3.54 µM
SF-539 CNS
  TGI: 3.8 µM
RXF 393 renal
  TGI: 6.01 µM
CAKI-1 renal
  TGI: 2.03 µM
HL-60(TB) leukemia
  TGI: 3.9 µM
OVCAR-5 ovarian
  TGI: 3.93 µM
KM20L2 colon
  TGI: 5.25 µM
SK-MEL-5 melanoma
  TGI: 3.02 µM
SK-MEL-28 melanoma
  TGI: 4.54 µM
MOLT-4 leukemia
  TGI: 1.8 µM
LXFL 529 NSCLC
  TGI: 1.6 µM
NCI-H522 lung
  TGI: 0.601 µM
NCI-H226 lung
  TGI: 5.58 µM
MDA-N
  TGI: 35.7 µM
MALME-3M melanoma
  TGI: 2.26 µM
M19-MEL melanoma
  TGI: 3.08 µM
BT-549 breast
  TGI: 6.1 µM
HOP-92 NSCLC
  TGI: 4.26 µM
IGROV1 ovarian
  TGI: 3.66 µM
SF-268 CNS
  TGI: 4.68 µM
U251 CNS
  TGI: 3.43 µM
OVCAR-8 ovarian
  TGI: 2.25 µM
DU-145 prostate
  TGI: 5.46 µM
SW-620 colon
  TGI: 0.779 µM
SNB-19 CNS
  TGI: 6.08 µM
SF-295 CNS
  TGI: 4.8 µM
HS 578T breast
  TGI: > 43.4 µM
SNB-78 CNS
  TGI: 6.49 µM
LOX IMVI melanoma
  TGI: 4.95 µM
UACC-257 melanoma
  TGI: 5.76 µM
HCC-2998 colon
  TGI: 3.68 µM
